The structures appear in SMILES notation.

Recombinant human PDK1 enzyme (aa 52-556), sequence (O15530 52-556): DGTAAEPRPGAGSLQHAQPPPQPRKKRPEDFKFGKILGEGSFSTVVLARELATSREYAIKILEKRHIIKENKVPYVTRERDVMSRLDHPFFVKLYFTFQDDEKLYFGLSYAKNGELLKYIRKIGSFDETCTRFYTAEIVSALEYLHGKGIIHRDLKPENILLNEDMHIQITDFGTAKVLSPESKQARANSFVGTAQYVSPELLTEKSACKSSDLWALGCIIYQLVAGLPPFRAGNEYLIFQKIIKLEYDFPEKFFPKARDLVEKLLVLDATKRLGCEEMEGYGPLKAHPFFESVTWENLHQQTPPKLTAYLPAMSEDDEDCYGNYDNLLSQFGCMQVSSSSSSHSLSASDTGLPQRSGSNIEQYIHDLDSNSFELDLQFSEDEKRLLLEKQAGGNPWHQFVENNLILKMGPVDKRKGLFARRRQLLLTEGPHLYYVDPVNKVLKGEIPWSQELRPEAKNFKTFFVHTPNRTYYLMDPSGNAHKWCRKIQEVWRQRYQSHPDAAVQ

This assay concerns the target Recombinant human PDK1 enzyme (aa 52-556) (Homo sapiens (Human), UniProt O15530). In words: PDK1 kinase assay. Type of assay: biochemical. Particulars: in vitro kinase assay, His6-PDK1 (aa 52-556), PDKtide, P33-ATP. As for the experimental part: The activity of the compounds according to the invention on the kinase PDK1 which inhibits the signal transduction pathway is determined in an in vitro kinase assay with recombinantly prepared protein:
Recombinant human PDK1 enzyme (aa 52-556) linked at its N-terminal end to His6 is isolated from baculovirus-infected insect cells. Purified enzyme may be obtained for example from the University of Dundee, Scotland. The following components are combined in a well of a 96-well round-based dish (Greiner bio-one, No. 650101): • 15 μL of compound to be tested in varying concentrations (e.g. starting at 10 μM, and diluted in steps of 1:5) in APT buffer (50 mM Tris/Cl pH 7.5; 0.05% β-mercaptoethanol; 10 mM Mg-acetate; 0.0166% Tween 20; 3.33% DMSO) • 15 μL His6-PDK1 (aa 52-556) 3.33 ng/well) and PDKtide ([…]), synthesised by Pepceuticals Limited, Nottingham, United Kingdom; 25 μM final concentration); His6-PDK1 and PDKtide are together diluted accordingly in assay buffer (50 mM tris pH 7.5, 0.05% β-mercaptoethanol, 10 mM Mg-acetate); PDKtide is present in this mixture as an 83.3 μM solution. These 30 μl are routinely incubated for 30 min at RT. • 20 μL ATP solution (25 μM ATP with 1.0 μCi/well gamma-P33-ATP). The final concentration of Tween 20 is 0.005%.
The reaction is started by adding the ATP solution and the mixture is incubated for 90 min at RT. At the start of the reaction the dishes are shaken gently. The reaction is stopped by the addition of 50 μL/well of 500 mM phosphoric acid (H3PO4) and incubated for about 20 min at RT. The precipitate is transferred by harvesting onto filter plates (96-well microtitre filter plate: UniFilter GF/C; Perkin Elmer; No. 6005174), then washed 6 times with 50 mM H3PO4 and dried at 60° C. Then the plate is stuck down with sealing tape, 25 μL/well of scintillation solution (Microscint 0; Perkin Elmer; No. 6013611) are added and the amount of P33 precipitated is measured using the Wallac Betacounter. The measured data are evaluated using Graphpad Prism software.
For `O=C(NCC#Cc1ccc2ncc(NC3CCN(C4COC4)CC3)nc2c1)c1cccn([C@H](CO)c2cccc(F)c2)c1=O` [I-63], the IC50 – broadly, the midpoint of a concentration-inhibition curve – was determined as 4 nM.

As to `O=C(NCC#Cc1ccc2ncnc(NCC(O)c3ccccc3)c2c1)c1cncn(Cc2ccc(F)c(F)c2)c1=O` (centres unmarked) [II-13], the IC50 turned out to be 184 nM.

Consider `CCN1CCC(Nc2cnc3ccc(C#CCNC(=O)c4cccn([C@@H](CO)c5ccc(F)c(F)c5)c4=O)cc3n2)CC1` [I-50], for which the half-maximal inhibitory concentration (IC50) is 1 nM.

Take `CCNc1c([N+](=O)[O-])cnc2ccc(C#CCNC(=O)c3cncn(Cc4ccc(F)c(F)c4)c3=O)cc12` [I-126]: the IC50 was 86 nM.

In the case of `CCNC(=O)c1cnc2ccc(C#CCNC(=O)c3cncn(Cc4ccc(F)c(F)c4)c3=O)cc2c1` [II-76], the concentration for half-maximal inhibition (IC50) came to 31 nM.

Take `CN1CCC(Nc2cnc3ccc(C#CCNC(=O)c4cccn([C@@H](CO)c5ccc(F)c(F)c5)c4=O)cc3n2)CC1` [I-41]: the IC50 was 3 nM.

For `CNc1ncnc2cc(F)c(C#CCNC(=O)c3c(C)n(C)n(Cc4ccc(F)c(F)c4)c3=O)cc12` [I-6], the 50% inhibitory concentration (IC50) amounted to 68 nM.

As to `COCCN1CCC(Nc2cnc3ccc(C#CCNC(=O)c4cccn([C@H](CO)c5cccc(F)c5)c4=O)cc3n2)CC1` [I-55], the half-maximal inhibitory concentration (IC50) stood at 4 nM.

In the case of `CC(c1ccc(F)c(F)c1)n1cccc(C(=O)NCC#Cc2ccc3nccc(OC[C@H]4CCN(C)C4)c3c2)c1=O` (some centres unmarked) [I-125.10], the IC50 came out at 3 nM.

On to `CN(C)c1ccnc2ccc(C#CCNC(=O)c3cncn(Cc4ccc(F)c(F)c4)c3=O)cc12` [I-90], for which the concentration for half-maximal inhibition (IC50) turned out to be 110 nM.

Turning to `N[C@H]1CC[C@@H](Nc2cnc3ccc(C#CCNC(=O)c4cncn(Cc5ccc(F)c(F)c5)c4=O)cc3n2)CC1` [I-33], the IC50 turned out to be 40 nM.

Regarding `CN1CCN(c2cnc3ccc(C#CCNC(=O)c4cncn(Cc5ccc(F)c(F)c5)c4=O)cc3n2)CC1` [I-24], the IC50 is 117 nM.

On to `CNC(=O)c1cnc2ccc(C#CCNC(=O)c3cncn(Cc4ccc(F)c(F)c4)c3=O)c(C)c2c1` [II-69], for which the IC50 came to 21 nM.

As for `CCN(CC)c1ncnc2ccc(C#CCNC(=O)c3cc(Cl)nn(Cc4ccc(F)c(F)c4)c3=O)cc12` [II-43], the IC50 stood at 8 nM.

For the compound `CN(C)CC(C)(C)COc1ccnc2ccc(C#CCNC(=O)c3cncn(Cc4ccc(F)c(F)c4)c3=O)cc12` [I-102], the half-maximal inhibitory concentration (IC50) came out at 13 nM.

As to `CC(C)(CO)CNc1ncnc2ccc(C#CCNC(=O)c3cccn(Cc4ccc(F)c(F)c4)c3=O)cc12` [II-32], the IC50 worked out at 124 nM.

On to `CN(c1c(C#N)cnc2ccc(C#CCNC(=O)c3cccn(Cc4ccc(F)c(F)c4)c3=O)cc12)C1CCCCC1` [II-95], for which the concentration for half-maximal inhibition (IC50) worked out at 544 nM.

Take `O=C(NCC#Cc1ccc2ncccc2c1)c1cncn(Cc2ccc(F)c(F)c2)c1=O` [I-80]: the IC50 was 132 nM.

Regarding `CN1CCCC(COc2ccnc3ccc(C#CCNC(=O)c4cccn(Cc5ccc(F)c(F)c5)c4=O)cc23)C1` (centres unmarked) [I-101], the IC50 is 5 nM.

`CNc1c(C#N)cnc2ccc(C#CCNC(=O)c3cccn(Cc4ccc(F)c(F)c4)c3=O)cc12` [II-105]: the IC50 worked out at 46 nM.

`CN(C)c1cnc2ccc(C#CCNC(=O)c3cncn(Cc4ccc(F)c(F)c4)c3=O)cc2n1` [I-15]: the IC50 is 68 nM.

As for `CC(C)Nc1c([N+](=O)[O-])cnc2ccc(C#CCNC(=O)c3cncn(Cc4ccc(F)c(F)c4)c3=O)cc12` [I-128], the IC50 is 116 nM.

For the compound `NC(=O)[C@@H](Cc1ccccc1)Nc1ncnc2ccc(C#CCNC(=O)c3cncn(Cc4ccc(F)c(F)c4)c3=O)cc12` [II-17], the half-maximal inhibitory concentration (IC50) came out at 488 nM.

Turning to `O=C(NCC#Cc1ccc2ncnc(C3=CCNCC3)c2c1)c1cncn(Cc2ccc(F)c(F)c2)c1=O` [II-67], the IC50 came out at 96 nM.

With `CCN(CC)c1ncnc2ccc(C#CCNC(=O)c3cccn(C(C)c4ccc(F)c(F)c4)c3=O)cc12` (centres unmarked) [II-54], the 50% inhibitory concentration (IC50) worked out at 8 nM.

As for `O=C(NCC#Cc1ccc2nccc(OCC3CCCCO3)c2c1)c1cncn(Cc2ccc(F)c(F)c2)c1=O` (centres unmarked) [I-108], the IC50 came out at 116 nM.

`CN(C)CCCN(C)c1ccnc2ccc(C#CCNC(=O)c3cncn(Cc4ccc(F)c(F)c4)c3=O)cc12` [I-89]: the IC50 was determined as 23 nM.

Take `CN1CCC(Nc2cnc3ccc(C#CCNC(=O)c4cccn(Cc5ccc(F)c(F)c5)c4=O)cc3n2)CC1` [I-31]: the concentration for half-maximal inhibition (IC50) is 5 nM.

As for `CNc1ncnc2ccc(C#CCNC(=O)c3cccn(Cc4ccoc4)c3=O)cc12` [II-51], the IC50 amounted to 770 nM.

Regarding `CN(CC1CCCCC1)c1c(C#N)cnc2ccc(C#CCNC(=O)c3cccn(Cc4ccc(F)c(F)c4)c3=O)cc12` [II-99], the IC50 turned out to be 683 nM.

With `O=C(NCC#Cc1ccc2nccc(OCC3CCOCC3)c2c1)c1cccn(C(CO)c2ccc(F)c(F)c2)c1=O` (centres unmarked) [I-125.16], the half-inhibitory concentration (IC50) is 11 nM.

For the compound `CCOc1ccnc2ccc(C#CCNC(=O)c3cncn(Cc4ccc(F)c(F)c4)c3=O)cc12` [I-95], the IC50 amounted to 33 nM.

`COCCN1CCC(Nc2cnc3ccc(C#CCNC(=O)c4cccn([C@@H](C)c5ccc(F)c(F)c5)c4=O)cc3c2)CC1` [I-78]: the IC50 amounted to 9 nM.

With `CN(C)CCCOc1cnc2ccc(C#CCNC(=O)c3cncn(Cc4ccc(F)c(F)c4)c3=O)cc2n1` [I-17], the IC50 came out at 95 nM.

In the case of `O=C(NCC#Cc1ccc2ncc(NC3CCNCC3)nc2c1)c1cncn(Cc2ccc(F)c(F)c2)c1=O` [I-27], the IC50 is 3 nM.

On to `COC(=O)c1cnc2ccc(C#CCNC(=O)c3cncn(Cc4ccc(F)c(F)c4)c3=O)c(C)c2c1` [I-82], for which the IC50 came out at 119 nM.

Turning to `CNc1ncnc2ccc(C#CCNC(=O)c3cc(NCCN(C)C)nn(Cc4ccc(F)c(F)c4)c3=O)cc12` [II-57], the IC50 came out at 357 nM.

As to `CCOc1ccnc2ccc(C#CCNC(=O)c3cccn(Cc4ccc(F)c(F)c4)c3=O)cc12` [I-94], the concentration for half-maximal inhibition (IC50) was 55 nM.

Regarding `O=C(NCC#Cc1ccc2ncc(NC3CCCCC3)nc2c1)c1cncn(Cc2ccc(F)c(F)c2)c1=O` [I-26], the IC50 was 588 nM.

Consider `CC(c1cc(F)c(F)c(F)c1)n1cccc(C(=O)NCC#Cc2ccc3nccc(OC[C@@H]4CCN(C)C4)c3c2)c1=O` (some centres unmarked) [I-125.1], for which the IC50 was 3 nM.

In the case of `CN(C)CCCOc1ncnc2ccc(C#CCNC(=O)c3cncn(Cc4ccc(F)c(F)c4)c3=O)cc12` [I-8], the IC50 was determined as 103 nM.

Turning to `CN(C)CCCN(C)c1cnc2ccc(C#CCNC(=O)c3cncn(Cc4ccc(F)c(F)c4)c3=O)cc2n1` [I-13], the IC50 stood at 34 nM.

On to `O=C(NCC#Cc1ccc2ncnc(NC3CCOCC3)c2c1)c1cncn(Cc2ccc(F)c(F)c2)c1=O` [II-21], for which the half-maximal inhibitory concentration (IC50) worked out at 515 nM.

Regarding `CC(C)Nc1cnc2ccc(C#CCNC(=O)c3cncn(Cc4ccc(F)c(F)c4)c3=O)cc2n1` [I-35], the IC50 turned out to be 21 nM.

As for `O=C(NCC#Cc1ccc2nccc(OCC3CCOC3)c2c1)c1cccn(C(CO)c2ccc(F)c(F)c2)c1=O` (centres unmarked) [I-125.4], the half-maximal inhibitory concentration (IC50) is 12 nM.

In the case of `CNc1ncnc2ccc(C#CCNC(=O)c3cccn([C@@H](C)c4ccc(F)c(F)c4)c3=O)cc12` [II-60], the IC50 is 8 nM.

With `NC(=O)CNc1ncnc2ccc(C#CCNC(=O)c3cccn(Cc4ccc(F)c(F)c4)c3=O)cc12` [II-35], the IC50 came out at 59 nM.

Take `CN1CCC(Oc2ccnc3ccc(C#CCNC(=O)c4cccn(Cc5ccc(F)c(F)c5)c4=O)cc23)C1` (centres unmarked) [I-107]: the IC50 worked out at 212 nM.

In the case of `O=C(NCC#Cc1ccc2ncc(-c3ccccc3)cc2c1)c1cncn(Cc2ccc(F)c(F)c2)c1=O` [I-81], the half-maximal inhibitory concentration (IC50) came out at 66 nM.

Regarding `CNc1ncnc2cc(Cl)c(C#CCNC(=O)c3cncn(Cc4ccc(F)c(F)c4)c3=O)cc12` [I-5], the half-maximal inhibitory concentration (IC50) stood at 229 nM.

Turning to `CN1CCC(Nc2cnc3ccc(C#CCNC(=O)c4cccn([C@H](CO)c5ccccc5)c4=O)cc3n2)CC1` [I-32], the IC50 was found to be 8 nM.

Turning to `COc1ccc(CN(C)c2ncnc3ccc(C#CCNC(=O)c4cccn(Cc5ccc(F)c(F)c5)c4=O)cc23)cc1` [II-52], the IC50 is 6 nM.

With `O=C(NCC#Cc1ccc2ncc(NC3CCN(C4CC4)CC3)nc2c1)c1cncn(Cc2ccc(F)c(F)c2)c1=O` [I-23], the IC50 was 8 nM.

Regarding `COc1ccc(CCNc2ncnc3ccc(C#CCNC(=O)c4cncn(Cc5ccc(F)c(F)c5)c4=O)cc23)cc1` [II-18], the half-maximal inhibitory concentration (IC50) is 41 nM.

For `CN1CCC(Oc2ccnc3ccc(C#CCNC(=O)c4cncn(Cc5ccc(F)c(F)c5)c4=O)cc23)C1` (centres unmarked) [I-106], the IC50 was determined as 119 nM.

For the compound `O=C(NCC#Cc1ccc2ncc(OC3CCNCC3)cc2c1)c1cncn(Cc2ccc(F)c(F)c2)c1=O` [I-87], the IC50 was found to be 23 nM.

Turning to `CNc1ncnc2ccc(C#CCNC(=O)c3cncn(Cc4ccccc4F)c3=O)cc12` [II-53], the half-maximal inhibitory concentration (IC50) amounted to 486 nM.

Turning to `CNc1ncnc2ccc(C#CCNC(=O)c3cccn(Cc4ccsc4)c3=O)cc12` [II-26], the IC50 is 199 nM.

Regarding `CN(C)CC(O)COc1ccnc2ccc(C#CCNC(=O)c3cccn(Cc4ccc(F)c(F)c4)c3=O)cc12` (centres unmarked) [I-105], the half-inhibitory concentration (IC50) worked out at 47 nM.

Source of the values: patent publication US8575203B2, “Chemical compounds” (Boehringer Ingelheim International GmbH, priority 2010, dated 2013).
